# Article PMC6128713 (Saudi Pharmaceutical Journal : SPJ, 2018)
# Several values for one entry are separate records, joined by “and”; a condition that tells them apart may be missing. Equal entries are not always repeated. Where two headings read alike, the source gives them in different places.
# Experiments:
# [1] = tested on: glutamate-induced 45Ca2+ uptake into synaptosomes of rat brain cortex; test: Effect on glutamate-induced 45Ca2+ uptake into synaptosomes of rat brain cortex; type: biochemical, Wistar rats; settings: for Percentage 45Ca2+ of Control (Control – 100%): 200 μM glutamate, 5 min, 37 °C; for overall inhibiting activity on calcium ion uptake, in words: whole concentration range 0.01–100 μM
# [2] = type: physicochemical
structure (smiles),measurement,setting,value
"COc1ccc2c(c1)c1c(n2CCc2n[nH]c(=S)n2C)CCN(C)C1 [III, 5-[2-(8-Methoxy-2-methyl-1,2,3,4-tetrahydropyrido[4,3-b]indol-5-yl)ethyl]-4-methyl-2,4-dihydro[1,2,4]triazole-3-thione]",Percentage 45Ca2+ of Control (Control – 100%),[1]; compound 0.01 μM,86.7 ± 4.0%
same,Percentage 45Ca2+ of Control (Control – 100%),[1]; compound 0.1 μM,57.5 ± 8.3%
same,Percentage 45Ca2+ of Control (Control – 100%),[1]; compound 0.5 μM,83.0 ± 7.9%
same,Percentage 45Ca2+ of Control (Control – 100%),[1]; compound 1 μM,83.4 ± 12.7%
same,Percentage 45Ca2+ of Control (Control – 100%),[1]; compound 5 μM,86.6 ± 4.5%
same,Percentage 45Ca2+ of Control (Control – 100%),[1]; compound 10 μM,85.8 ± 15.2%
same,Percentage 45Ca2+ of Control (Control – 100%),[1]; compound 50 μM,93.1 ± 12.8%
same,Percentage 45Ca2+ of Control (Control – 100%),[1]; compound 100 μM,96.1 ± 13.2%
same,maximal effect on calcium ion uptake (inhibiting ability),[1]; concentration of 0.1 μM,42.5%
same,inhibition of glutamate-induced calcium ion uptake,[1]; concentration of 1 μM,~17%
same,"overall inhibiting activity on calcium ion uptake, in words",[1],highest inhibiting activity within a wide concentration range (0.01–10 μM)
same,mole fraction solubility (x),"[2]; 1-octanol, 293.15 K",0.71 x · 10^4
same,"A, parameter of the correlation equation lnx=A-B/T","[2]; 1-octanol, 293.15–313.15 K",7.10 ± 0.15
same,"B, parameter of the correlation equation lnx=A-B/T","[2]; 1-octanol, 293.15–313.15 K",4876 ± 47
same,mole fraction solubility (x),"[2]; 1-octanol, 298.15 K",0.93 x · 10^4
same,"ΔGsol0, standard molar dissolution Gibbs energy","[2]; 1-octanol, 298.15 K",5.5 kcal/mol
same,"ΔHsol0, standard molar dissolution enthalpy","[2]; 1-octanol, 298.15 K",9.68 kcal/mol
same,"ΔSsol0, standard molar dissolution entropy","[2]; 1-octanol, 298.15 K",58.7 J/mol⋅K
same,mole fraction solubility (x),"[2]; 1-octanol, 303.15 K",1.22 x · 10^4
same,mole fraction solubility (x),"[2]; 1-octanol, 308.15 K",1.61 x · 10^4
same,mole fraction solubility (x),"[2]; 1-octanol, 313.15 K",2.05 x · 10^4
same,mole fraction solubility (x),"[2]; Buffer pH 7.4, 293.15 K",5.57 x · 10^6
same,"A, parameter of the correlation equation lnx=A-B/T","[2]; Buffer pH 7.4, 293.15–313.15 K",−2.82 ± 0.09
same,"B, parameter of the correlation equation lnx=A-B/T","[2]; Buffer pH 7.4, 293.15–313.15 K",2719 ± 29
same,mole fraction solubility (x),"[2]; Buffer pH 7.4, 298.15 K",6.55 x · 10^6
same,"ΔGsol0, standard molar dissolution Gibbs energy","[2]; Buffer pH 7.4, 298.15 K",7.07 kcal/mol
same,"ΔHsol0, standard molar dissolution enthalpy","[2]; Buffer pH 7.4, 298.15 K",5.4 kcal/mol
same,"ΔSsol0, standard molar dissolution entropy","[2]; Buffer pH 7.4, 298.15 K",–23.4 J/mol⋅K
same,mole fraction solubility (x),"[2]; Buffer pH 7.4, 303.15 K",7.53 x · 10^6
same,mole fraction solubility (x),"[2]; Buffer pH 7.4, 308.15 K",8.77 x · 10^6
same,mole fraction solubility (x),"[2]; Buffer pH 7.4, 313.15 K",10.09 x · 10^6
same,mole fraction solubility (x),"[2]; Hexane, 293.15 K",3.30 x · 10^5
same,"A, parameter of the correlation equation lnx=A-B/T","[2]; Hexane, 293.15–313.15 K",−2.93 ± 0.14
same,"B, parameter of the correlation equation lnx=A-B/T","[2]; Hexane, 293.15–313.15 K",2165 ± 43
same,mole fraction solubility (x),"[2]; Hexane, 298.15 K",3.71 x · 10^5
same,"ΔGsol0, standard molar dissolution Gibbs energy","[2]; Hexane, 298.15 K",6.05 kcal/mol
same,"ΔHsol0, standard molar dissolution enthalpy","[2]; Hexane, 298.15 K",4.3 kcal/mol
same,"ΔSsol0, standard molar dissolution entropy","[2]; Hexane, 298.15 K",-24.5 J/mol⋅K
same,mole fraction solubility (x),"[2]; Hexane, 303.15 K",4.18 x · 10^5
same,mole fraction solubility (x),"[2]; Hexane, 308.15 K",4.68 x · 10^5
same,mole fraction solubility (x),"[2]; Hexane, 313.15 K",5.31 x · 10^5
"CN1CCc2c(c3cc(Cl)ccc3n2CCc2n[nH]c(=S)n2C)C1 [V, 5-[2-(8-Chloro-2-methyl-1,2,3,4-tetrahydropyrido[4,3-b]indol-5-yl)ethyl]-4-methyl-2,4-dihydro[1,2,4]triazole-3-thione]",Percentage 45Ca2+ of Control (Control – 100%),[1]; compound 0.01 μM,103.5 ± 7.7%
same,Percentage 45Ca2+ of Control (Control – 100%),[1]; compound 0.1 μM,95.3 ± 1.0%
same,Percentage 45Ca2+ of Control (Control – 100%),[1]; compound 0.5 μM,102.2 ± 6.3%
same,Percentage 45Ca2+ of Control (Control – 100%),[1]; compound 1 μM,94.5 ± 4.7%
same,Percentage 45Ca2+ of Control (Control – 100%),[1]; compound 5 μM,80.7 ± 10.5%
same,Percentage 45Ca2+ of Control (Control – 100%),[1]; compound 10 μM,75.6 ± 10.0%
same,Percentage 45Ca2+ of Control (Control – 100%),[1]; compound 50 μM,93.3 ± 11.0%
same,Percentage 45Ca2+ of Control (Control – 100%),[1]; compound 100 μM,135.5% and 135.5 ± 9.4%
same,"inhibition of glutamate-induced calcium ion uptake, most efficient",[1]; concentration of 5–10 μM,~20%
same,"overall inhibiting activity on calcium ion uptake, in words",[1],weak inhibitors of calcium ion uptake
same,mole fraction solubility (x),"[2]; 1-octanol, 293.15 K",1.15 x · 10^4
same,"A, parameter of the correlation equation lnx=A-B/T","[2]; 1-octanol, 293.15–313.15 K",6.03 ± 0.15
same,"B, parameter of the correlation equation lnx=A-B/T","[2]; 1-octanol, 293.15–313.15 K",4423 ± 47
same,mole fraction solubility (x),"[2]; 1-octanol, 298.15 K",1.47 x · 10^4
same,"ΔGsol0, standard molar dissolution Gibbs energy","[2]; 1-octanol, 298.15 K",5.23 kcal/mol
same,"ΔHsol0, standard molar dissolution enthalpy","[2]; 1-octanol, 298.15 K",8.8 kcal/mol
same,"ΔSsol0, standard molar dissolution entropy","[2]; 1-octanol, 298.15 K",50.0 J/mol⋅K
same,mole fraction solubility (x),"[2]; 1-octanol, 303.15 K",1.91 x · 10^4
same,mole fraction solubility (x),"[2]; 1-octanol, 308.15 K",2.42 x · 10^4
same,mole fraction solubility (x),"[2]; 1-octanol, 313.15 K",3.01 x · 10^4
same,mole fraction solubility (x),"[2]; Buffer pH 7.4, 293.15 K",2.66 x · 10^6
same,"A, parameter of the correlation equation lnx=A-B/T","[2]; Buffer pH 7.4, 293.15–313.15 K",0.12 ± 0.16
same,"B, parameter of the correlation equation lnx=A-B/T","[2]; Buffer pH 7.4, 293.15–313.15 K",3799 ± 50
same,mole fraction solubility (x),"[2]; Buffer pH 7.4, 298.15 K",3.25 x · 10^6
same,"ΔGsol0, standard molar dissolution Gibbs energy","[2]; Buffer pH 7.4, 298.15 K",7.34 kcal/mol
same,"ΔHsol0, standard molar dissolution enthalpy","[2]; Buffer pH 7.4, 298.15 K",7.55 kcal/mol
same,"ΔSsol0, standard molar dissolution entropy","[2]; Buffer pH 7.4, 298.15 K",2.9 J/mol⋅K
same,mole fraction solubility (x),"[2]; Buffer pH 7.4, 303.15 K",4.01 x · 10^6
same,mole fraction solubility (x),"[2]; Buffer pH 7.4, 308.15 K",4.95 x · 10^6
same,mole fraction solubility (x),"[2]; Buffer pH 7.4, 313.15 K",6.07 x · 10^6
same,mole fraction solubility (x),"[2]; Hexane, 293.15 K",5.42 x · 10^4
same,"A, parameter of the correlation equation lnx=A-B/T","[2]; Hexane, 293.15–313.15 K",2.45 ± 0.12
same,"B, parameter of the correlation equation lnx=A-B/T","[2]; Hexane, 293.15–313.15 K",2922 ± 38
same,mole fraction solubility (x),"[2]; Hexane, 298.15 K",6.39 x · 10^4
same,"ΔGsol0, standard molar dissolution Gibbs energy","[2]; Hexane, 298.15 K",4.35 kcal/mol
same,"ΔHsol0, standard molar dissolution enthalpy","[2]; Hexane, 298.15 K",5.81 kcal/mol
same,"ΔSsol0, standard molar dissolution entropy","[2]; Hexane, 298.15 K",13.1 J/mol⋅K
same,mole fraction solubility (x),"[2]; Hexane, 303.15 K",7.47 x · 10^4
same,mole fraction solubility (x),"[2]; Hexane, 308.15 K",8.87 x · 10^4
same,mole fraction solubility (x),"[2]; Hexane, 313.15 K",10.22 x · 10^4
